Test results published in article PMC12348157, “Neuroprotective Evaluation of Murraya Carbazoles: In Vitro and Docking Insights into Their Anti-AChE and Anti-Aβ Activities” (Molecules, 2025).
In brackets after ≈: the same amount, converted by molar mass. Several values for one entry are separate records, joined by “and”; a condition that tells them apart may be missing. Identical values can stand only once. Like-named read-outs stand apart in the source and are kept apart here.

Experiments:
Aβ1-42 fibrillization = biological target: T1, Aβ1-42 fibrillization (Homo sapiens, UniProt P05067); assay: Thioflavin T (ThT) anti-Aβ fibrillization assay; type: biochemical; settings: mean ± SD (n = 3); for Aβ fibrillization inhibition: samples 500 μg/mL, 24 h
T1 construct: Aβ1–42 was purchased from GenicBio Inc; purchased GenicBio Inc
T1 sequence (P05067 672-713): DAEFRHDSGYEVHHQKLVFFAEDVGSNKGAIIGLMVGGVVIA

[1] = biological target: T2, Acetylcholinesterase (Electrophorus electricus, Type VI-S) (Electrophorus electricus, UniProt O42275); assay: AChE inhibition kinetics (Lineweaver–Burk / Michaelis–Menten); type: biochemical; settings: for Inhibition Type: Lineweaver–Burk plots
T2 sequence (O42275 24-633): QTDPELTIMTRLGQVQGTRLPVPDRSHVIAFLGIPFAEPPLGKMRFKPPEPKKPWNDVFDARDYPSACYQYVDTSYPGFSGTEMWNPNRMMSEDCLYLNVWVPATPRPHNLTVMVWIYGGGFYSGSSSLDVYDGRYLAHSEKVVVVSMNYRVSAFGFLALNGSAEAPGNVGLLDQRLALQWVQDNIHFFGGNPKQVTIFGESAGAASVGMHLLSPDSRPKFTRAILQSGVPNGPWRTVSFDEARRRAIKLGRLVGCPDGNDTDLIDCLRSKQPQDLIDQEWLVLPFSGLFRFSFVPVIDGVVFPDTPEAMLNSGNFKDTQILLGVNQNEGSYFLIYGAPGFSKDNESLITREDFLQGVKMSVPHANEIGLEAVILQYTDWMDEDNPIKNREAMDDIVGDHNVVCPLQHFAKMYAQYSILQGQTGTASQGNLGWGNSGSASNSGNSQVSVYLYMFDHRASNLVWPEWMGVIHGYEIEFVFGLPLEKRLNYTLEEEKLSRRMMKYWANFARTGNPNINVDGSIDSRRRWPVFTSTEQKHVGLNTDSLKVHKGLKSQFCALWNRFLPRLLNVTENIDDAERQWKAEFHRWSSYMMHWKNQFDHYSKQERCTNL
Protocol: The inhibition curves were plotted using linear regression (Lineweaver–Burk plot) on GraphPad Prism 10.3 (Figure 8).
The Km and Vmax values were calculated using a non-linear fit (Michaelis–Menten equation) (Table 6). The Ki value (inhibitor constant), the dissociation constant describing the binding affinity between the inhibitor and the enzyme, was calculated as described previously.
AChE inhibition was measured using Ellman’s method with slight modifications. The compounds were incubated with the enzyme and the substrate (10 mM ATC) for 15 min. Later, 15 mM DTNB was added, and the plate was incubated for 10 min at 37 °C. The absorbance was measured at 412 nm using a multimode reader (Synergy-H1 BioTek, Agilent, Santa Clara, CA, USA). Galantamine served as a positive control. Percent inhibition was computed using the equation: […]
Statistical analysis was performed by one-way ANOVA followed by Dunnett’s post hoc test. The data were registered as the mean ± SD of at least three experiments. The symbol *** represent p < 0.001 significance compared to the control. The IC50 values were determined using non-linear regression, and the Lineweaver–Burk plots were drawn using linear regression analysis by GraphPad Prism 10.3.

[2] = biological target: T2, Acetylcholinesterase (Electrophorus electricus, Type VI-S); assay: biochemical; settings: Electrophorus electricus AChE, mean of three experiments ± SD; read-out: IC50 anti-AChE activity (converted)
AChE = settings: cited from earlier work
[3] = system: LPS-treated animal models; settings: cited from earlier work
microglial cells = settings: cited from earlier work
[4] = listed as 9-methyl-9H-carbazole-2-carbaldehyde
[5] = inhibitor 10 μg/mL, read-out: Ki
[6] = inhibitor 30 μg/mL, read-out: Ki
[7] = no inhibitor concentration stated, read-out: Ki value
[8] = pre-treatment, LPS-treated animal models

| Structure (SMILES) | Aβ fibrillization inhibition (Aβ1-42 fibrillization) | Aβ fibrillization inhibition (Aβ1-42 fibrillization; [4]) | Inhibition Type [1] | Inhibition Type [1, 4] | Vmax ([1]; inhibitor 10 μg/mL) [µmol/min/mg] | Ki [1, 5] [nM] | Vmax ([1]; inhibitor 30 μg/mL) [µmol/min/mg] | Ki [1, 6] [nM] | Ki [1, 7] | IC50 [2] | IC50 anti-AChE, previously reported value (AChE) [µg/mL] | Aβ1-40 levels ([3]; animal model) | Cognition ([3]; animal model) | ACh levels in the brain [3, 8] | AChE in the brain [3, 8] | Inhibition Type ([1]; listed as mahanimbine) | Neuroprotective activity by reducing inflammation (microglial cells) | Inhibition Type ([1]; listed as murrayafoline A) | Inhibition Type ([1]; listed as murrayanol) | inhibition at 50 µM (Aβ1-42 fibrillization; phenol red 50 μM, read-out: Aβ fibrillization inhibition (positive control)) [%] |
| --- | --- | --- | --- | --- | --- | --- | --- | --- | --- | --- | --- | --- | --- | --- | --- | --- | --- | --- | --- | --- |
| Cn1c2ccccc2c2ccc(C=O)cc21 [9-Methyl-9H-carbazole-2-carbaldehyde, 9-methyl-9H-carbazole-2-carbaldehyde] | did not show any inhibition | no inhibition | Competitive | Competitive inhibition | 0.3874 | 29200 | 0.3634 | 31400 | ~30000 nM | 37600 nM | – | – | – | – | – | – | – | – | – | – |
| COc1ccc2c3c1O[C@H]1C[C@@H](O)C=C[C@@]31CCN(C)C2 [Galantamine, galantamine] | – | – | – | – | – | – | – | – | – | – | 0.31 (≈ 1.08 µM) | – | – | – | – | – | – | – | – | – |
| CC(C)=CCCC1(C)C=Cc2c(c(C)cc3c2[nH]c2ccccc23)O1 (centres unmarked) [Mahanimbine, mahanimbine] | 27.68 ± 2.71% | – | Non-Competitive | – | 0.2098 | 599 | 0.2231 | 599 | 440 to 590 nM | ~603 nM and 603 nM | – | reduced | improved cognition | improved | inhibited | non-competitive inhibition | – | – | – | – |
| COc1cc(C)cc2c1[nH]c1ccccc12 [Murrayafoline A, murrayafoline A] | 33.60 ± 0.55% | – | Competitive | – | 0.3826 | 58700 | 0.3753 | 61000 | ~60000 nM | 67800 nM | – | – | – | – | – | – | neuroprotective activity | Competitive inhibition | – | – |
| COc1cc2[nH]c3c(C/C=C(\C)CCC=C(C)C)c(O)ccc3c2cc1C [Murrayanol, murrayanol] | 40.83 ± 0.30% | – | Competitive | – | 0.3756 | 444 | 0.3613 | 470 | ~450 nM and 450 nM and 440 to 590 nM | ~550 nM and 523 nM | – | – | – | – | – | – | – | – | Competitive inhibition | – |
| O=S1(=O)OC(c2ccc(O)cc2)(c2ccc(O)cc2)c2ccccc21 [phenol red, reference compound] | – | – | – | – | – | – | – | – | – | – | – | – | – | – | – | – | – | – | – | 67.86 ± 0.38 |
